Values after ≈ are worked out from the molar mass of the structure shown.
Tests used:
[1] = Chemical Stability Assay - Teorell-Stenhagen Buffer; format: physicochemical; details: for Teorell-Stenhagen Buffer pH 3.5 t1/2 / Teorell-Stenhagen Buffer pH 4.5 t1/2 / Teorell-Stenhagen Buffer pH 5.5 t1/2 / Teorell-Stenhagen Buffer pH 6.5 t1/2 / Teorell-Stenhagen Buffer pH 7.5 t1/2 / Teorell-Stenhagen Buffer pH 8.5 t1/2: 10 μM, 0.5% DMSO, 20° C.
Experimental: (§1) CBD methyl ether and CBD difluoromethyl ether were synthesized using a synthetic protocol described above and the identities of the desired ether products were confirmed by nuclear magnetic resonance spectroscopy as well as HPLC-MS. CBD methyl and/or CBD difluoromethyl ethers were incubated in individual eppendorf tubes in the following mediums: (a) simulated gastric fluid (SGF) with and without pepsin; (b) microsomal extract; (c) S9 fraction (hepatic); (d) Plasma; (e) Teorell-Stenhagen Buffer at pH 3.5, 4.5, 5.5, 6.5, 7.5, and 8.5; and (f) simulated intestinal fluid (SIF) with and without pancreatin. Each incubation mixture contained up to 0.5% of an organic solvent. DMSO is the organic solvent when SGF and Teorell-Stenhagen Buffer was used and acetonitrile is the organic solvent for incubation mixtures in microsomal extract, S9 fraction, and plasma. The concentration of CBD methyl and/or CBD difluoromethyl ether is 10 μM for stability studies in SGF and Teorell-Stenhagen Buffer. However, the concentration of CBD methyl and/or CBD difluoromethyl ether is 1 μM for stability studies in microsomal extract, S9 fraction, and plasma.
[…] Aliquots were taken at fixed intervals of time, typically at 0, 5, 10, 15, 30, and 45 minutes, or at fixed intervals of 1 h, 1.5 h, 2 h, 4 h, 6 h, 8 h, 24 h, and 48 hours. At each interval of time, two aliquots of each sample were collected. Each aliquot was extracted with ethyl acetate. The ethyl acetate layer was evaporated using a stream of nitrogen gas and the resulting residue was dissolved in 1:1 mixture of 0.1% aqueous HOAc and acetonitrile and analyzed by reverse-phase HPLC-MS.

[2] = S9 Intrinsic Clearance Assay; format: in vitro ADME, Human
Experimental: as §1
(§2) Stability studies were performed by incubating CBD methyl ether and/or CBD difluoromethyl ether at 37 ° C. in the desired medium. Aliquots were taken at fixed intervals of time, typically at 0, 5, 10, 15, 30, and 45 minutes, or at fixed intervals of 1 h, 1.5 h, 2 h, 4 h, 6 h, 8 h, 24 h, and 48 hours. At each interval of time, two aliquots of each sample were collected. Each aliquot was extracted with ethyl acetate. The ethyl acetate layer was evaporated using a stream of nitrogen gas and the resulting residue was dissolved in 1:1 mixture of 0.1% aqueous HOAc and acetonitrile and analyzed by reverse-phase HPLC-MS.
The stability of CBD methyl ether and CBD difluoromethyl ether in the hepatic S9 fraction is illustrated in Table 3. Both the methyl and difluoromethyl ethers were reasonably stable in S9 fraction with half-lives for de-etherification being about 5 hours for the methyl ether and about 3 hours for the difluoromethyl ether.
Intrinsic clearance (CLint) is clearance of drug by the livers if the drug is not bound to serum proteins or dependent on blood flow for delivery to the livers. Intrinsic clearance (CLint) is influenced by the affinity of the drug for its metabolizing liver enzyme and the number of enzymes present. CLint is subject to saturation and governed by Michaelis-menten (non-linear) elimination kinetics. Intrinsic clearance can be constant at low concentration, but progressively decreases as enzyme sites become saturated. Drugs with a strong affinity for their metabolizing enzymes or for which there are a large number of enzymes would be more efficiently extracted by the liver and thus, have a high extraction ratio (EH).
The hepatic extraction ratio EH is a good measure of expected first-pass metabolic clearance from liver (typical first pass after oral administration). The hepatic extraction ratio (Eh) is represented as follows:
Hepatic clearance (CLH) is the volume of blood that is cleared of drug per unit time by the liver, and QH is the rate of blood flow to the liver.
The hepatic extraction ratio EH is particularly useful for separating compounds into low/medium/high metabolic stability categories. Unlike in vitro intrinsic microsomal clearance (CLint), EH is species-nonspecific, because in its calculation species differences like liver weight, body weight, liver blood flow, etc. are normalized out, so EH values can be directly compared across species.

[3] = Microsomal Intrinsic Clearance Assay; format: in vitro ADME, Human
Experimental: as §1, §2
In vitro intrinsic microsomal clearance studies were performed to understand the metabolic fate of CBD ethers, as well as to identify metabolites produced by the degradation of the inventive CBD ethers.
The liver is the most important site of drug metabolism in the body. Approximately 60% of marketed compounds are cleared by hepatic CYP-mediated metabolism. See Drug Aletab. Dispos., 27(11) (1999) 1350. Liver microsomes are a subcellular fraction of hepatocytes, and they contain membrane bound drug metabolizing enzymes, Microsomes can be used to determine the in vitro intrinsic clearance of a compound. The use of species-specific microsomes can be used to enable an understanding of interspecies differences in drug metabolism.

Plasma Stability Assay = format: in vitro ADME; details: 1 μM, 37 ° C.
Experimental: as §1, with “The concentration of CBD methyl and/or CBD difluoromethyl ether is 10 μM for stability studies in SGF and Teorell-Stenhagen Buffer. However, the concentration of CBD methyl and/or CBD difluoromethyl ether is 1 μM for stability studies in microsomal extract, S9 fraction, and plasma.” left out
Stability studies were performed by incubating CBD methyl ether and/or CBD difluoromethyl ether at 37 ° C. in the desired medium. […] The ethyl acetate layer was evaporated using a stream of nitrogen gas and the resulting residue was dissolved in 1:1 mixture of 0.1% aqueous HOAc and acetonitrile and analyzed by reverse-phase HPLC-MS.
The methyl and difluoromethyl ethers of CBD were stable to degradation in plasma. The half-life of degradation as measured by LC-MS for both ethers was greater than 400 minutes.

Solubility Assay - PBS = format: physicochemical; details: for solubility in phosphate buffered saline / Solubility (μM) in PBS 7.4: PBS pH 7.4; for Solubility (μM) in PBS 7.4 / Solubility (μM) in T-S 7.5: λ 280 nm; for Solubility (μM) in T-S 7.5: Teorell-Stenhagen buffer pH 7.5
[4] = Stability in simulated gastric fluid (SGF) with and without pepsin and simulated intestinal fluid (SIF) with and without pancreatin; details: for SGF t1/2: SGF with pepsin; for SGF t1/2 / SGF No Pepsin t1/2: pH 1.2; for SGF t1/2 / SGF No Pepsin t1/2 / SIF t1/2 / SIF No Pancreatin t1/2: 10 μM, 0.5% DMSO, 37° C.; for SGF No Pepsin t1/2: SGF without pepsin; for SIF t1/2: SIF with pancreatin; for SIF t1/2 / SIF No Pancreatin t1/2: pH 6.8; for SIF No Pancreatin t1/2: SIF without pancreatin
[5] = pediatric epilepsy patients receiving CBD orally; cited from earlier work
[6] = 1 μM, protein 1.25 mg/mL, pH 7.4, 37° C
[7] = 1 μM, protein 1.25 mg/mL, pH 7.4, 37° C, NADPH, UDPGA, PAPS
[8] = 1 μM, microsomal protein 1 mg/mL, pH 7.4, 37° C.

Molecule	Teorell-Stenhagen Buffer pH 3.5 t1/2 [1] [h]	Teorell-Stenhagen Buffer pH 4.5 t1/2 [1] [h]	Teorell-Stenhagen Buffer pH 5.5 t1/2 [1] [h]	Teorell-Stenhagen Buffer pH 6.5 t1/2 [1] [h]	Teorell-Stenhagen Buffer pH 7.5 t1/2 [1] [h]	Teorell-Stenhagen Buffer pH 8.5 t1/2 [1] [h]	Human S9 EH (hepatic extraction ratio) [2, 6] [%]	Human S9 CLint [2, 7] [µL/min/mg]	Human S9 t1/2 [2, 7] [h]	half-life for de-etherification in S9 fraction ([2]; hepatic S9 fraction)	HLM CLint [3, 8] [µL/min/mg]	HLM EH (hepatic extraction ratio) [3, 8] [%]	HLM t1/2 [3, 8] [h]	stability in liver microsome extract [3]	Plasma stability Human t1/2 (Plasma Stability Assay) [h]	solubility in phosphate buffered saline (Solubility Assay - PBS)	Solubility (μM) in PBS 7.4 (Solubility Assay - PBS) [µM]	Solubility (μM) in T-S 7.5 (Solubility Assay - PBS) [µM]	SGF t1/2 [4] [h]	SGF No Pepsin t1/2 [4] [h]	other results
C=C(C)[C@@H]1CCC(C)=C[C@H]1c1c(O)cc(CCCCC)cc1OC [CBD Methyl Ether, CBD methyl ether]	>72	>72	>72	>72	>72	>72	21	1.9	4.77	about 5 hours	8.7	26	1.33	relatively stable	>6.67	good solubility	8.4 (≈ 2.76 µg/mL)	22 (≈ 7.23 µg/mL)	>6.67	>6.67	half-life of de-etherification in buffers at different pH's ([1]; Teorell-Stenhagen buffer pH 3.5-8.5): greater than 72 hours; SIF t1/2 [4]: >6.67 h; SIF No Pancreatin t1/2 [4]: >6.67 h
C=C(C)[C@@H]1CCC(C)=C[C@H]1c1c(O)cc(CCCCC)cc1O [CBD, cannabidiol, reference compound]	–	–	–	–	–	–	–	–	–	–	–	–	–	–	–	–	–	–	–	–	patients showing somnolence [5]: greater than 44%; CBD cyclized to mixture of Δ8-THC and Δ9-THC ([4]; in about 60 minutes, comparison in the SGF/SIF stability study): greater than 85%
C[C@]12CC[C@H]3[C@@H](CCC4=CC(=O)CC[C@@]43C)[C@@H]1CC[C@@H]2O [Testosterone, testosterone, reference compound]	–	–	–	–	–	–	87	–	–	–	–	73	–	–	–	–	–	–	–	–	microsomal CLint at 1 μM ([2]; human, hepatic S9 fraction, 1 μM, protein 1.25 mg/mL, pH 7.4, 37° C, NADPH, UDPGA, PAPS): 47 µL/min/mg; half-life at 1 μM ([2]; human, hepatic S9 fraction, 1 μM, protein 1.25 mg/mL, pH 7.4, 37° C, NADPH, UDPGA, PAPS, read-out: Human S9 t1/2): 0.483 h; half-life ([2]; human, hepatic S9 fraction, read-out: half-life of degradation in S9 fraction): ~0.483 h; microsomal CLint at 1 μM ([3]; human, liver microsomes, 1 μM, microsomal protein 1 mg/mL, pH 7.4, 37° C., read-out: HLM CLint): 69 µL/min/mg; half-life at 1 μM ([3]; human, liver microsomes, 1 μM, microsomal protein 1 mg/mL, pH 7.4, 37° C., read-out: HLM t1/2): 0.167 h
CBD difluoromethyl ether	10	14	11	11	11	8	31	3.2	2.88	about 3 hours	9.0	26	1.28	relatively stable	>6.67	good solubility	7.0	9.7	>6.67	>6.67	SIF t1/2 [4]: >6.67 h; SIF No Pancreatin t1/2 [4]: >6.67 h

From patent US20190345087A1, “BIO-STABLE C[…] AND METHODS FOR ENHANCING THEIR PHYSIOLOGICAL CONCENTRATION” (Teewinot Technologies Limited, priority 2016, published 2019)
